According to ChEMBL document CHEMBL3612037, “Design and synthesis of some new pyrazolyl-pyrazolines as potential anti-inflammatory, analgesic and antibacterial agents” (Eur J Med Chem, 2015):
Values after ≈ are worked out from the molar mass of the structure shown. Active and inactive are the calls of the source. The rule behind the calls is not given here.

How the values were obtained:
[1] = system: Rattus norvegicus; assay: Anti-inflammatory activity in Wistar rat assessed as inhibition of carrageenan-induced paw oedema at 50 mg/kg, po dosed 30 mins before carrageenan challenge and measured 120 mins post carrageenan challenge; type: functional
[2] = system: Mus musculus; assay: Acute toxicity in Swiss mouse assessed as induction of depression incidence at 100 to 1000 mg/kg, po measured 48 hrs post dose; type: organism-based; conditions: in vivo
[3] = system: Aeromonas hydrophila; assay: Antimicrobial activity against Aeromonas hydrophila at 20 uL of 1 mg/ml by disc diffusion assay; type: functional; conditions: for zone of inhibition at 1000 µg/mL: read-out: IZ
[4] = system: Staphylococcus; assay: Antimicrobial activity against Staphylococcus citreus at 20 uL of 1 mg/ml by disc diffusion assay; type: functional; conditions: for zone of inhibition at 1000 µg/mL: read-out: IZ
[5] = Acute toxicity in Swiss mouse at 100 to 1000 mg/kg, po measured 48 hrs post dose; type: organism-based; conditions: in vivo
[6] = system: Rattus norvegicus; assay: Analgesic activity in Wistar rat assessed as tail flick latency time at 50 mg/kg, po measured 30 mins post dose by tail flick method (reference value: 3.46 +/- 0.1 secs); type: functional
[7] = system: Mus musculus; assay: Acute toxicity in Swiss mouse assessed as induction of diarrhoea incidence at 100 to 1000 mg/kg, po measured 48 hrs post dose; type: organism-based; conditions: in vivo
[8] = system: Rattus norvegicus; assay: Anti-inflammatory activity in Wistar rat assessed as inhibition of carrageenan-induced paw oedema at 50 mg/kg, po dosed 30 mins before carrageenan challenge and measured 30 mins post carrageenan challenge; type: functional
[9] = system: Rattus norvegicus; assay: Analgesic activity in Wistar rat assessed as tail flick latency time at 50 mg/kg, po measured 0 mins post dose by tail flick method (reference value: 3.5 +/- 0.8 secs); type: functional
[10] = system: Escherichia coli; assay: Antimicrobial activity against Escherichia coli at 20 uL of 1 mg/ml by disc diffusion assay; type: functional; conditions: for zone of inhibition at 1000 µg/mL: read-out: IZ
[11] = system: Rattus norvegicus; assay: Analgesic activity in Wistar rat assessed as tail flick latency time at 50 mg/kg, po measured 90 mins post dose by tail flick method (reference value: 3.7 +/- 0.1 secs); type: functional
[12] = system: Rattus norvegicus; assay: Anti-inflammatory activity in Wistar rat assessed as inhibition of carrageenan-induced paw oedema at 50 mg/kg, po dosed 30 mins before carrageenan challenge and measured 60 mins post carrageenan challenge; type: functional
[13] = system: Staphylococcus aureus; assay: Antimicrobial activity against Staphylococcus aureus at 20 uL of 1 mg/ml by disc diffusion assay; type: functional; conditions: for zone of inhibition at 1000 µg/mL: read-out: IZ
[14] = system: Rattus norvegicus; assay: Analgesic activity in Wistar rat assessed as tail flick latency time at 50 mg/kg, po measured 60 mins post dose by tail flick method (reference value: 3.47 +/- 0.1 secs); type: functional
[15] = system: Staphylococcus aureus; assay: Antimicrobial activity against Staphylococcus aureus by agar dilution method; type: functional
[16] = system: Staphylococcus; assay: Antimicrobial activity against Staphylococcus citreus by agar dilution method; type: functional

Compound | inhibition in vivo at 50 mg/kg [1] [%] | Activity [2] | zone of inhibition at 1000 µg/mL [3] [mm] | zone of inhibition at 1000 µg/mL [4] [mm] | LD50 at 48 h [5] [mg/kg] | Time [6] [s] | Activity [7] | inhibition in vivo at 50 mg/kg [8] [%] | Time [9] [s] | zone of inhibition at 1000 µg/mL [10] [mm] | Time [11] [s] | inhibition in vivo at 50 mg/kg [12] [%] | zone of inhibition at 1000 µg/mL [13] [mm] | Time [14] [s] | MIC [15] [µg/mL] | inhibition zone (IZ) [10] | inhibition zone (IZ) [3] | inhibition zone (IZ) [4] | MIC [16] [µg/mL] | inhibition zone (IZ) [13]
O=CN1N=C(c2ccc(F)cc2)CC1c1cn(-c2ccccc2)nc1-c1ccc(Cl)c(Cl)c1 (centres undefined) | 60.9 | Non-toxic | 10 | 18 | 500 | 6.3 | Non-toxic | 37.2 | 3.5 | 12 | 6.6 | 56.5 | 13 | 6.4 |  |  |  |  |  | 
CCC(=O)N1N=C(c2ccc(Cl)cc2)CC1c1cn(-c2ccccc2)nc1-c1ccc(Cl)c(Cl)c1 (centres undefined) | 68.8 | Non-toxic | 23 | 18 | 500 | 6.1 | Non-toxic | 47.9 | 3.3 | 19 | 5.4 | 61.1 | 30 | 6.8 | 300 (≈ 573 µM) |  |  |  |  | 
O=[N+]([O-])c1ccc(N2N=C(c3ccc(Cl)cc3)CC2c2cn(-c3ccccc3)nc2-c2ccc(Cl)c(Cl)c2)cc1 (centres undefined) | 69.5 | Non-toxic | 21 | 18 | 500 | 6.9 | Non-toxic | 48.9 | 3.4 | 31 | 6.6 | 57.2 | 22 | 7 |  |  |  |  |  | 
CC(=O)N1N=C(c2ccc(Cl)cc2)CC1c1cn(-c2ccccc2)nc1-c1ccc(Cl)c(Cl)c1 (centres undefined) | 66.4 | Non-toxic | 19 | 13 | 500 | 5.5 | Non-toxic | 45.7 | 3.5 |  | 5.1 | 57.2 | 21 | 5.9 |  | inactive |  |  |  | 
CCC(=O)N1N=C(c2ccc(C)cc2)CC1c1cn(-c2ccccc2)nc1-c1ccc(Cl)c(Cl)c1 (centres undefined) | 70.3 | Non-toxic |  |  | 500 | 5.3 | Non-toxic | 29.8 | 3.3 | 22 | 5.9 | 61.1 | 24 | 6.4 |  |  | inactive | inactive |  | 
Cc1ccc(C2=NN(c3ccccc3)C(c3cn(-c4ccccc4)nc3-c3ccc(Cl)c(Cl)c3)C2)cc1 (centres undefined) | 62.5 | Non-toxic | 18 |  | 500 | 6.7 | Non-toxic | 46.8 | 3.3 | 20 | 6.6 | 58.8 | 15 | 7.1 |  |  |  | inactive |  | 
O=CN1N=C(c2ccc(Cl)cc2)CC1c1cn(-c2ccccc2)nc1-c1ccc(Cl)c(Cl)c1 (centres undefined) | 57.8 | Non-toxic |  | 21 | 500 | 4.5 | Non-toxic | 35.1 | 3 |  | 4.3 | 51.1 | 18 | 4.7 |  | inactive | inactive |  |  | 
Cc1ccc(C2=NN(c3ccc([N+](=O)[O-])cc3)C(c3cn(-c4ccccc4)nc3-c3ccc(Cl)c(Cl)c3)C2)cc1 (centres undefined) | 71.9 | Non-toxic | 19 | 16 | 500 | 7 | Non-toxic | 57.4 | 3.4 | 16 | 6.6 | 72.5 | 21 | 7.4 |  |  |  |  |  | 
CN[C@H](CC(C)C)C(=O)N[C@H]1C(=O)N[C@@H](CC(N)=O)C(=O)N[C@H]2C(=O)N[C@H]3C(=O)N[C@H](C(=O)N[C@H](C(=O)O)c4cc(O)cc(O)c4-c4cc3ccc4O)[C@H](O)c3ccc(c(Cl)c3)Oc3cc2cc(c3O[C@@H]2O[C@H](CO)[C@@H](O)[C@H](O)[C@H]2O[C@H]2C[C@](C)(N)[C@H](O)[C@H](C)O2)Oc2ccc(cc2Cl)[C@H]1O [VANCOMYCIN] |  |  |  |  |  |  |  |  |  |  |  |  |  |  | 500 (≈ 345 µM) |  |  |  | 500 (≈ 345 µM) | 
Cc1ccc(C2=NN(C=O)C(c3cn(-c4ccccc4)nc3-c3ccc(Cl)c(Cl)c3)C2)cc1 (centres undefined) | 60.9 | Non-toxic |  | 16 | 500 | 4.7 | Non-toxic | 35.1 | 3.4 | 20 | 4.4 | 53.4 |  | 4.6 |  |  | inactive |  |  | inactive
CC(=O)N1N=C(c2ccc(C)cc2)CC1c1cn(-c2ccccc2)nc1-c1ccc(Cl)c(Cl)c1 (centres undefined) | 70.3 | Non-toxic |  |  | 500 | 5.3 | Non-toxic | 27.6 | 3.5 | 18 | 5.5 | 59.5 | 19 | 5.5 |  |  | inactive | inactive |  | 
O=[N+]([O-])c1ccc(N2N=C(c3ccc(F)cc3)CC2c2cn(-c3ccccc3)nc2-c2ccc(Cl)c(Cl)c2)cc1 (centres undefined) | 65.6 | Non-toxic |  | 21 | 500 | 5.1 | Non-toxic | 45.7 | 3.8 |  | 5.2 | 60.3 | 20 | 5.7 |  | inactive | inactive |  |  | 
Fc1ccc(C2=NNC(c3cn(-c4ccccc4)nc3-c3ccc(Cl)c(Cl)c3)C2)cc1 (centres undefined) | 46.1 | Non-toxic | 16 | 23 | 500 | 4.5 | Non-toxic | 45.7 | 3.1 |  | 4.2 | 40.5 | 14 | 4.8 |  | inactive |  |  |  | 
Cc1ccc(C2=NNC(c3cn(-c4ccccc4)nc3-c3ccc(Cl)c(Cl)c3)C2)cc1 (centres undefined) | 48.4 | Non-toxic | 11 |  | 500 | 5.9 | Non-toxic | 38.3 | 3.6 | 15 | 6.5 | 56.5 | 19 | 6.3 |  |  |  | inactive |  | 
CC(=O)N1N=C(c2ccc(F)cc2)CC1c1cn(-c2ccccc2)nc1-c1ccc(Cl)c(Cl)c1 (centres undefined) | 72.7 | Non-toxic | 19 |  | 500 | 6.8 | Non-toxic | 45.7 | 3.5 | 12 | 6.6 | 59.5 |  | 6.5 |  |  |  | inactive |  | inactive
